Reference: the supplement of paper PMC10307832

Experiments:
Experiment in all cases: relative viability (nuclei count vs DMSO), 5 days (fraction); higher = more cells survive
[1] = compound: CC1=CC(=C(N1C2=CC=C(C=C2)Cl)C)C(=O)CN3CCCCC3 [IU1-47]
Outline: (§1)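 In 1536-well plates, lung cancer cell lines rested overnight at 37 °C before five library-drug doses (not always all listed), √10 apart, were pinned onto vehicle-anchored plates. Nuclei were counted with MetaXpress from 4× Hoechst images taken after 5 days without medium change. Viability compares treated-well with vehicle-well nuclei as a median over plates, and plates needed control CV below 25% plus at least one doubling to pass.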

[2] = compound: Cc1nc(C(=O)NCC(=O)O)c(O)c2ccc(Oc3ccccc3)cc12 [FG-4592]
Outline: as §1

[3] = compound: CC1=CC(=C(N1C2=CC=C(C=C2)Cl)C)C(=O)CN3CCCCC3 [IU1-47] + CC1(C)CCC(c2ccc(Cl)cc2)=C(CN2CCN(c3ccc(C(=O)NS(=O)(=O)c4ccc(N[C@H](CCN5CCOCC5)CSc5ccccc5)c(S(=O)(=O)C(F)(F)F)c4)cc3)CC2)C1 [Navitoclax] (partner 0.5 µM)
Outline: (§2)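 Values are medians from duplicate plates. Each reflects relative viability, defined as the nuclei count of treated wells over that of vehicle wells. Lung cancer cell lines in 1536-well plates were pin-tool dosed one day after seeding with one drug alone or with a fixed anchor-drug dose plus five library-drug doses (not always all listed) in √10 steps, then fixed, stained and imaged at 4× after 5 days.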

[4] = compound: Cc1nc(C(=O)NCC(=O)O)c(O)c2ccc(Oc3ccccc3)cc12 [FG-4592] + N=C(N)NC(=N)NCCc1ccccc1 [Phenformin] (partner 250 µM)
Outline: as §2

Cell Line	relative viability ([1]; 0.08 µM)	relative viability ([1]; 0.253 µM)	relative viability ([1]; 0.8 µM)	relative viability ([1]; 2.53 µM)	relative viability ([1]; 8 µM)	relative viability ([2]; 0.08 µM)	relative viability ([2]; 0.253 µM)	relative viability ([2]; 0.8 µM)	relative viability ([2]; 2.53 µM)	relative viability ([2]; 8 µM)	relative viability ([3]; first compound 0.08 µM)	relative viability ([3]; first compound 0.253 µM)	relative viability ([3]; first compound 0.8 µM)	relative viability ([3]; first compound 8 µM)	relative viability ([4]; first compound 0.08 µM)	relative viability ([4]; first compound 0.253 µM)	relative viability ([4]; first compound 0.8 µM)	relative viability ([4]; first compound 2.53 µM)	relative viability ([4]; first compound 8 µM)	relative viability ([3]; first compound 2.53 µM)
201T	0.961	0.99	1.07	0.53	0.941	0.941	0.955	0.974	1	0.982	1.23	1.2	1.21	1.22	0.399	0.408	0.423	0.437	0.493	–
HCC-44	0.964	1.03	1.03	0.945	1.02	1.01	0.939	0.806	1.05	1.04	1.14	1.01	1	0.956	0.107	0.184	–	0.145	0.151	0.908
NCI-H596	1.19	0.775	1.14	1.03	0.801	0.794	0.955	–	1.03	0.651	1.05	0.961	0.982	1.05	0.637	0.712	0.512	0.72	0.473	0.869
H3255	1.11	1.16	1.02	0.74	0.975	1.02	0.87	0.926	0.9	1.08	0.557	0.602	0.489	0.446	0.359	0.345	0.361	0.33	0.323	0.511
NCI-H647	1.07	1.05	0.843	0.985	0.923	0.916	0.94	0.837	0.933	0.727	1.31	1.3	1.19	1.04	0.435	0.536	0.46	0.467	0.457	1.26
NCI-H2023	0.951	0.949	1.06	0.851	1.27	0.919	0.866	0.857	0.922	0.88	1.02	0.934	1.05	1.1	0.427	0.38	0.437	0.442	0.379	1.02
NCI-H23	0.93	0.986	1.15	0.908	0.857	0.965	0.833	0.71	0.782	0.829	0.791	0.903	0.987	0.716	0.794	0.789	0.844	0.767	0.76	0.925
NCI-H1944	1.1	1.02	0.947	0.902	0.852	0.932	0.872	0.685	0.954	0.852	1.1	1.12	1.04	1.03	0.194	0.187	0.185	0.18	0.2	–
NCI-H1793	0.859	0.83	1.04	–	0.864	0.569	0.812	–	0.745	0.762	0.412	0.358	0.445	0.424	0.357	0.273	–	0.307	0.36	–
NCI-H520	0.989	0.973	0.981	0.879	0.849	0.873	0.897	0.827	0.943	0.761	1.22	1.12	1.26	0.981	0.31	0.595	–	0.51	0.465	1.02
A549	1.06	1.07	0.978	0.937	1.01	0.979	0.86	0.974	1.02	0.911	1.23	1.27	1.21	1.1	0.166	0.154	0.159	0.191	0.216	1.26
NCI-H460	1.04	0.987	1.08	0.955	1.01	0.965	0.947	1.03	1	1.02	1.3	1.08	1.36	1.38	0.538	0.521	0.548	0.54	0.491	1.02
EKVX	1.23	1.12	1.03	0.859	0.943	1.03	0.809	0.932	0.941	0.992	1.24	1.17	0.965	0.882	0.205	0.237	0.224	0.221	0.262	0.973
EPLC-272H	1.02	1.05	0.933	–	0.806	0.886	0.777	0.7	0.901	0.889	1.19	1.07	1.07	1.12	0.323	0.237	0.268	0.274	0.31	–
NCI-H1395	0.879	0.953	0.884	0.534	0.791	0.86	0.795	0.672	0.975	0.761	1.03	1.07	1.14	1.15	0.408	0.46	0.397	0.408	0.415	–
NCI-H2126	1.09	1.02	1.1	0.698	0.957	0.969	0.906	0.82	0.846	0.901	0.987	0.823	0.897	0.809	0.554	0.5	0.51	0.492	0.461	0.545
LXF-289	1.08	1.06	1.08	0.982	0.958	1.04	0.941	1.06	0.981	1.09	0.993	1	0.985	0.975	0.518	0.479	0.527	0.457	0.51	0.92
